Reference: patent US8729074B2, “Inhibitors of PI3 kinase” (Amgen Inc., priority 2009, dated 2014)

How the values were obtained:
[1] = biological target: PI3Kα (Homo sapiens (Human), UniProt P42336); assay: In vitro PI3K AlphaScreen assay; format: biochemical; conditions: average if run more than once
Procedure: In Vitro PI3K AlphaScreen® Assay
The PI3K AlphaScreen® assay (PerkinElmer, Waltham, Mass.) measures the activity of a panel of four phosphoinositide 3-kinases: PI3Kα, PI3Kβ, PI3Kγ, and PI3Kδ. Each of these enzymes phosphorylates the 3′-hydroxyl group on phosphatidylinositiol (4,5)-bisphosphate (PIP2) to produce phosphatidylinositol (3,4,5)-trisphosphate (PIP3). This phosphorylation activity is measured using a GST-tagged PIP3 binding protein (Echelon Biosciences, Salt Lake City, Utah), an anti-GST-tagged Acceptor bead, and streptavidin-Donor bead. […] In the absence of this interaction, proximity of the Donor and Acceptor beads is decreased, producing a loss of luminescent signal which is inversely proportional to PI3K activity.
The enzyme reaction buffer is made using sterile water (Baxter, Deerfield, Ill.) and 50 mM Tris HCl pH 7, 14 mM MgCl2, 2 mM sodium cholate, and 100 mM NaCl. 2 mM DTT is added fresh the day of the experiment. The AlphaScreen® reaction buffer is made using sterile water and 10 mM Tris HCl pH 7.5, 150 mM NaCl, 0.10% Tween 20, and 30 mM EDTA. 1 mM DTT is added fresh the day of the experiment.
The source plates for this assay are 384-well Greiner clear polypropylene plates containing test compounds at 5 mM and diluted 1:2 over 22 points. Columns 23 and 24 contain only DMSO as these are designated for positive and negative controls. Source plates are replicated into 384-well Optiplates (PerkinElmer, Waltham, Mass.), 0.5 μL/well, to make assay-ready plates.
The different PI3K isoforms are each diluted in enzyme reaction buffer to 2× working solutions. […] Two different 2× substrate solutions are made in enzyme reaction buffer. In one solution, PI(4,5)P2 (Echelon Biosciences, Salt Lake City, Utah) is diluted to 10 μM and ATP is diluted to 20 μM. This solution is used in the assays testing PI3Kα and PI3Kβ. In a second solution, PI(4,5)P2 is diluted to 10 μM and ATP is diluted to 8 μM. This solution is used in the assays testing PI3Kγ and PI3Kδ.
The AlphaScreen® reaction solutions are made using beads from the anti-GST AlphaScreen® kit (PerkinElmer, Waltham, Mass.). Two solutions are made in Alphascreen reaction buffer to 4× working concentrations. In one solution, biotinylated-IP4 (Echelon Biosciences, Salt Lake City, Utah) is diluted to 40 nM and streptavadin-Donor Beads are diluted to 80 μg/mL. In the second solution, PIP3-binding protein (Echelon Biosciences, Salt Lake City, Utah) is diluted to 40 nM and anti-GST-Acceptor Beads are diluted to 80 μg/mL. 10 μL/well of enzyme reaction buffer is added to Column 24 of the assay ready plates in place of enzyme. This is done for plates in the PI3Kα, β, and δ assays.
Using a 384-well dispensing Multidrop (Titertek, Huntsville, Ala.), 10 μL/well of 2× enzyme (PI3Kα, β, δ) is added to Columns 1-23 of the appropriate assay ready plates (for PI3Kγ 10 μL is added to Columns 1-24). 10 μL/well of the appropriate substrate solution (the solution with 20 μM ATP for PI3Kα and β assays, and the solution with […] for PI3Kγ and δ assays) is then added to Columns 1-24 of the plates. Plates are then incubated at room temperature for 20 minutes.
In the dark, 10 μL/well of the Donor Bead solution is added to Columns 1-24 of the plates to quench the enzyme reaction. The plates are incubated at room temperature for 30 minutes. Still in the dark, 10 μL/well of the Acceptor Bead solution is also added to Columns 1-24 of the plates. The plates are then incubated in the dark for 1.5 hours. The plates are read on an Envision Multilabel Plate Reader (PerkinElmer, Waltham, Mass.) with a 680 nm excitation filter and a 520-620 nm emission filter.
Activity data for the compounds tested in the assay is provided in Table 1 under the column heading PI3Kα AlphaScreen®.

[2] = biological target: mTOR (Homo sapiens (Human), UniProt P42345); assay: In vitro mTOR Lanthascreen assay; format: biochemical; conditions: average if run more than once
mTOR, sequence (P42345 1360-2549): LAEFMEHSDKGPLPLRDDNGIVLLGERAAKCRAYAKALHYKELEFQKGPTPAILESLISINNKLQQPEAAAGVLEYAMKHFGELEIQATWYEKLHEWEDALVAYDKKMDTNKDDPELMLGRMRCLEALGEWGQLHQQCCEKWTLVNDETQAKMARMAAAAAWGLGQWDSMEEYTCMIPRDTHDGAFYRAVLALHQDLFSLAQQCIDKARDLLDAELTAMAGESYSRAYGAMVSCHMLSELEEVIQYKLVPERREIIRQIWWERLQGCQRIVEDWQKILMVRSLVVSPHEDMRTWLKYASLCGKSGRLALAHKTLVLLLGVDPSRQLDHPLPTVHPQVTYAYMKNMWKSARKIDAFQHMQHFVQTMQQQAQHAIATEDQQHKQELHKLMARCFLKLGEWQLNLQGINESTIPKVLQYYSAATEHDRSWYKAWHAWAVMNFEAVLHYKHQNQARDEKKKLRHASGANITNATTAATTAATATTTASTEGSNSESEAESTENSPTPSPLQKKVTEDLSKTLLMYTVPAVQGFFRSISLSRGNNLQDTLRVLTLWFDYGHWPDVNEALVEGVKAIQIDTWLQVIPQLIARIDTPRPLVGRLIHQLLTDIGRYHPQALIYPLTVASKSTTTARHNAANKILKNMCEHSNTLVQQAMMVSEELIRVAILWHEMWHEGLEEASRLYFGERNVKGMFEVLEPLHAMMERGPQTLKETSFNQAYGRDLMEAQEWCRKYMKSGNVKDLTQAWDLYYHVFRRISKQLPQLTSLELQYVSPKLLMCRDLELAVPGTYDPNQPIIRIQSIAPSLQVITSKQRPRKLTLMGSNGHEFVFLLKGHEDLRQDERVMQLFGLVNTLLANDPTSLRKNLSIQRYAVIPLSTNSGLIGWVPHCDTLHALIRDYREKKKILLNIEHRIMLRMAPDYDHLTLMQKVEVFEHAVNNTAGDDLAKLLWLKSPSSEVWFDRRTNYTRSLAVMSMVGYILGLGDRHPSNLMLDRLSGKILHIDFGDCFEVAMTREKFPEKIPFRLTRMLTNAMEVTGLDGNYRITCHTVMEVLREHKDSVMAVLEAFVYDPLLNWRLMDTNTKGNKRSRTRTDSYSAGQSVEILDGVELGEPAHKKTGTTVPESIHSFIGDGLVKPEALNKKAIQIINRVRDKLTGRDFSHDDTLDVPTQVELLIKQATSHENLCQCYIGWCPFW
Text: The Invitrogen (Carlsbad, Calif.) mammalian target of rapamycin (mTOR) Lanthascreen assay can be used to quantitate mTOR kinase activity in an in vitro setting. Active mTOR phosphorylates eukaryotic translation initiation factor 4E binding protein 1 (4E-BP1) on residue threonine 46. This phosphorylation event can be detected with a phospho-specific terbium (Tb) labeled Ab, in turn bringing the Tb label in close proximity to the GFP tagged 4E-BP 1 and allowing for time-resolved fluorescence resonance energy transfer (TR-FRET), which correlates 4E-BP1 phosphorylation levels with mTOR kinase activity.
Enzyme reaction buffer can be prepared in deionized water containing 50 mM HEPES (pH 7.5), 0.01% Polysorbate 20, 1 mM EGTA, and 10 mM MnCl2.
Dilutions of the compound to be tested can be prepared in 96-well polypropylene plates (Fisher Scientific, Waltham, Mass.). One row represents a 10-point dose of compound diluted 1:3 in enzyme reaction buffer and 20% dimethyl sulfoxide (DMSO). The top concentration for all compounds is 36 μM. Wells 6 and 12 can serve as the no compound (DMSO only) and high compound controls.
An mTOR substrate solution can prepared in enzyme reaction buffer containing 1600 nM green fluorescent protein tagged eukaryotic translation initiation factor 4E binding protein 1 (GFP-4E-BP1) (Invitrogen, Carlsbad, Calif.) and 28 uM adenosine triphosphate (ATP) (Calbiochem, Gibbstown, N.J.).
mTOR enzyme (Invitrogen, Carlsbad, Calif.) can be diluted in enzyme reaction buffer to a working concentration of 100 ng/mL.
The enzyme assay can be run in 384 well low volume assay plates (Corning, Corning, N.Y.). 2.5 uL of substrate solution containing GFP-4E-BP1 and ATP can be added to appropriate wells in the assay plate followed by 2.5 μL of compound dilutions. 5 μL of appropriately diluted mTOR enzyme can be added and the reaction allowed to proceed for 1 hour at room temperature. Final reagent concentrations in the enzyme assay are 50 ng/mL mTOR, 400 nM GFP-4E-BP1, and 7 μM ATP.
The enzyme assay can be terminated upon the addition of 10 μL of 20 mM EDTA and 4 nM Tb-labeled anti-phospho-4E-BP1 [T46] antibody (Invitrogen, Carlsbad, Calif.). The assay plate can then be incubated at room temperature for 1 hour and results read on a Tecan Safire II plate reader (Tecan, Männedorf, Switzerland).

PI3Kα, sequence (P42336 whole entry): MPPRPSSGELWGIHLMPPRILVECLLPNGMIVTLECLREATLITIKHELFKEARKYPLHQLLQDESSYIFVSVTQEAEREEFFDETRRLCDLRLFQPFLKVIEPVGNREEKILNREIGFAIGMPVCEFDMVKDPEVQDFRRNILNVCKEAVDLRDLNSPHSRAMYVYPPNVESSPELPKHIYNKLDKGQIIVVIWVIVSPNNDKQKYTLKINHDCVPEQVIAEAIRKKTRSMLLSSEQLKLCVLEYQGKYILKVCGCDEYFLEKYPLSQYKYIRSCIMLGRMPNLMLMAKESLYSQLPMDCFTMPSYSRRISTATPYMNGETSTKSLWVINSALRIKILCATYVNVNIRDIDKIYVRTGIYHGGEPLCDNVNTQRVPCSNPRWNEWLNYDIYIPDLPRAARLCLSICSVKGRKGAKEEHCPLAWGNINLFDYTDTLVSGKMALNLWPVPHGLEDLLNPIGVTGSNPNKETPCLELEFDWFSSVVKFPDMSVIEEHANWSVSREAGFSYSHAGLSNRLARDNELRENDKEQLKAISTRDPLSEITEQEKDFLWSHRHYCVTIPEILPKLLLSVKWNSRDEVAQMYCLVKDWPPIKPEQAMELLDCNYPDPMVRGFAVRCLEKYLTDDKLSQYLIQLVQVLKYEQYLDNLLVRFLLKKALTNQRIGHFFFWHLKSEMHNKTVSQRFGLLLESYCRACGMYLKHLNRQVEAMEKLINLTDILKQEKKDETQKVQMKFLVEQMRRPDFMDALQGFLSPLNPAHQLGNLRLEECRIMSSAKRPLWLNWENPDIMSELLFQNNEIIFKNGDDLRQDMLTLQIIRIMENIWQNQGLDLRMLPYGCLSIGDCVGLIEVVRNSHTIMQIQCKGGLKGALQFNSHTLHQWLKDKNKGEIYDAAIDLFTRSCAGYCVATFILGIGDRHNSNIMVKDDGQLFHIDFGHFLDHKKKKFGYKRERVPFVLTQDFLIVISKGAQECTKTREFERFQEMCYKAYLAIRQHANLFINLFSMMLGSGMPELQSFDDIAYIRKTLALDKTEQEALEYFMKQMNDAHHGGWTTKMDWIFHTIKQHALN
PI3Kα, sequence (P27986 whole entry partner): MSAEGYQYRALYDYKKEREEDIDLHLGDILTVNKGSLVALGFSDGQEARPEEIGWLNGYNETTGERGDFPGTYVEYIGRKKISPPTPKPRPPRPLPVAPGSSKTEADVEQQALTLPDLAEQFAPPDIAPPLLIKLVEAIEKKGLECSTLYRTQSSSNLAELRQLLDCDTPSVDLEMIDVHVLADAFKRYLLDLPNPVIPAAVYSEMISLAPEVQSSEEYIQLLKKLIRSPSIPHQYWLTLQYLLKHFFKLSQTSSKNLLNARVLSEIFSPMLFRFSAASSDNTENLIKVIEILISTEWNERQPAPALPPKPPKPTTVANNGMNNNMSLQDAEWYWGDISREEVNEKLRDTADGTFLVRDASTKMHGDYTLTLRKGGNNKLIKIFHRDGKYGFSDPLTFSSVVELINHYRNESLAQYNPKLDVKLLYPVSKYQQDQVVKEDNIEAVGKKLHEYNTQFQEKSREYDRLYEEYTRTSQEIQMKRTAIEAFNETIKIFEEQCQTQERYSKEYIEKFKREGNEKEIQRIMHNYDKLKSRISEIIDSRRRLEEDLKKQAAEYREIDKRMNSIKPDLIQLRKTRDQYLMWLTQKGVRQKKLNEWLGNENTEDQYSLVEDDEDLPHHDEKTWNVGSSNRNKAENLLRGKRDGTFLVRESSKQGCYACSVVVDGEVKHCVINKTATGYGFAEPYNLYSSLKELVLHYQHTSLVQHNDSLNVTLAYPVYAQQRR

Row | SMILES | Ki [1] [nM] | IC50 [2] [nM]
1 | O=S(=O)(Nc1cc(-c2cnc3ccccn23)cnc1Cl)c1ccc(F)cc1 [Example 3, N-(2-Chloro-5-imidazo[1,2-a]pyridin-3-yl-3-pyridinyl)-4-fluorobenzenesulfonamide] | 28 | 155
2 | Cc1ccn2c(-c3cnc(Cl)c(NS(=O)(=O)c4ccc(F)cc4)c3)cnc2c1 [Example 4, N-(2-Chloro-5-(7-methylimidazo[1,2-a]pyridin-3-yl)-3-pyridinyl)-4-fluorobenzenesulfonamide] | 19 | 
3 | Cc1nc2ccc(Br)cn2c1-c1cnc(Cl)c(NS(=O)(=O)c2ccc(F)cc2)c1 [Example 5, N-(5-(6-Bromo-2-methylimidazo[1,2-a]pyridin-3-yl)-2-chloro-3-pyridinyl)-4-fluorobenzenesulfonamide] | 20 | 848
4 | O=S(=O)(Nc1cc(-c2cnc3ccc(Br)cn23)cnc1Cl)c1ccc(F)cc1 [Example 6, N-(5-(6-Bromoimidazo[1,2-a]pyridin-3-yl)-2-chloro-3-pyridinyl)-4-fluorobenzenesulfonamide] | 6 | 39
5 | O=S(=O)(Nc1cc(-c2cnc3ccc(-c4ccncc4)cn23)cnc1Cl)c1ccc(F)cc1 [Example 7, N-(2-Chloro-5-(6-(4-pyridinyl)imidazo[1,2-a]pyridin-3-yl)-3-pyridinyl)-4-fluorobenzenesulfonamide] | 2 | 36
6 | O=S(=O)(Nc1cc(-c2cnc3ccc(-c4cccnc4)cn23)cnc1Cl)c1ccc(F)cc1 [Example 8, N-(2-Chloro-5-(6-(3-pyridinyl)imidazo[1,2-a]pyridin-3-yl)-3-pyridinyl)-4-fluorobenzenesulfonamide] | 1 | 32
7 | O=S(=O)(Nc1cc(-c2cnc3ccc(N4CCOCC4)cn23)cnc1Cl)c1ccc(F)cc1 [Example 9, N-(2-Chloro-5-(6-(4-morpholinyl)imidazo[1,2-a]pyridin-3-yl)-3-pyridinyl)-4-fluorobenzenesulfonamide] | 4 | 364
8 | COc1cc(-c2cnc3ccccn23)cnc1OC [Example 10, 3-(5,6-Dimethoxy-3-pyridinyl)imidazo[1,2-a]pyridine] | > 1500 | > 50000
9 | COc1cc(-c2cnc3ccc(Br)cn23)cnc1OC [Example 11, 6-Bromo-3-(5,6-dimethoxy-3-pyridinyl)imidazo[1,2-a]pyridine] | 779 | 2170
10 | COc1cc(-c2cnc3ccc(-c4ccncc4)cn23)cnc1OC [Example 12, 3-(5,6-Dimethoxy-3-pyridinyl)-6-(4-pyridinyl)imidazo[1,2-a]pyridine] | 626 | 3750
11 | COc1cc(-c2cnc3ccc(N4CCOC4=O)cn23)cnc1OC [Example 13, 3-(3-(5,6-Dimethoxy-3-pyridinyl)imidazo[1,2-a]pyridin-6-yl)-1,3-oxazolidin-2-one] | > 1500 | 9660
12 | COc1cc(-c2cnc3ccc(N4CCOCC4)cn23)cnc1OC [Example 16, 3-(5,6-Dimethoxy-3-pyridinyl)-6-(4-morpholinyl)imidazo[1,2-a]pyridine] | 1080 | 4520
13 | CN(C)S(=O)(=O)Nc1cc(-c2cnc3ccc(-c4ccncc4)cn23)cnc1Cl [Example 18, N-(2-Chloro-5-(6-(pyridin-4-yl)imidazo[1,2-a]pyridin-3-yl)pyridin-3-yl)dimethylaminosulfonamide] | 1 | 15
14 | CN(C)S(=O)(=O)Nc1cc(-c2cnc3ccc(-c4ccnc(C(F)(F)F)c4)cn23)cnc1Cl [Example 19, N-(2-Chloro-5-(6-(2-(trifluoromethyl)pyridin-4-yl)imidazo[1,2-a]pyridin-3-yl)pyridin-3-yl)dimethylaminosulfonamid] | 1 | 15
15 | CS(=O)(=O)Nc1cc(-c2cnc3cc(-c4cccnc4)ccn23)cnc1Cl [Example 20, N-(2-Chloro-5-(7-(pyridin-3-yl)imidazo[1,2-a]pyridin-3-yl)pyridin-3-yl)methanesulfonamide] | 5 | 32
16 | CN(C)S(=O)(=O)Nc1cc(-c2cnc3cc(-c4ccncc4)ccn23)cnc1Cl [Example 21, N′-(2-Chloro-5-(7-(4-pyridinyl)imidazo[1,2-a]pyridin-3-yl)-3-pyridinyl)-N,N-dimethylsulfamide] | 15 | 258
17 | CN(C)S(=O)(=O)Nc1cc(-c2cnc3cc(-c4cccnc4)ccn23)cnc1Cl [Example 22, N′-(2-Chloro-5-(7-(3-pyridinyl)imidazo[1,2-a]pyridin-3-yl)-3-pyridinyl)-N,N-dimethylsulfamide] | 21 | 157
18 | Cc1cc2ncc(-c3cnc(Cl)c(NS(=O)(=O)N(C)C)c3)n2cc1-c1ccncc1 [Example 23, N′-(2-Chloro-5-(7-methyl-6-(4-pyridinyl)imidazo[1,2-a]pyridin-3-yl)-3-pyridinyl)-N,N-dimethylsulfamide] | 4 | 18
19 | O=S(=O)(Nc1cc(-c2cnc3ccc(Cl)nn23)cnc1Cl)c1ccc(F)cc1 [Example 25, N-(2-Chloro-5-(6-chloroimidazo[1,2-b]pyridazin-3-yl)pyridin-3-yl)-4-fluorobenzenesulfonamide] | 22 | 102
